Key:
[1] = test system: neurons in astrocyte/neuron co-culture; test: Brain cell damage induced by hydrogen peroxide treatment (neuroprotective effect, microscope observation); type: cell-based; details: Rattus norvegicus, hydrogen peroxide (250 μM), 24 hours, read-out: Concentration for complete inhibition of neuronal death
Protocol: (§1) The brain was removed from 1 to 2 day old Wistar rats (Charles River) or Sprague-Dawley (IGS) rats (Charles River), and the cerebral cortex including the hippocampus was excised under ice cooling. After this cerebral cortex was minced, it was digested with papain solution (9 U/ml) containing DNase I (30 U/ml) at 37 degrees Celsius for 15 minutes, dispersing the cells. After further carrying out mechanical dispersing by pipetting, it was passed through a cell strainer with a pore size of 70 μm, and a cell suspension was obtained. Cells derived from 1.4 cerebra were seeded on 150 mm tissue culture dish (Iwaki Glass), and primary culture was carried out at 37 degrees Celsius and 5% CO2 using a D-MEM medium (Invitrogen) containing 10% heat-inactivated fetal calf serum (JRH). One day after the start of the culture, the nonadherent cells were removed, and the primary cultured astrocytes were obtained by continuing the culture for 4 to 5 further days. The primary cultured astrocytes were dispersed by trypsin treating, suspended in cryopreservation solution, and cryopreserved.
(§2) After thawing the cryopreserved primary cultured astrocytes, they were seeded on tissue culture plates (Iwaki Glass), and a confluent astrocyte layer was produced by a further 7 days of secondary culture using a D-MEM medium containing 10% heat-inactivated fetal calf serum. Neurons to be used in the co-culture with the astrocyte layer were obtained from fetal rat cerebrum. Briefly, brains were removed from Wistar rats (Charles River) or Sprague-Dawley (IGS) rats (Charles River) of embryonic age 18.5 days, and the cerebral cortex including the hippocampus was excised under ice cooling. After this cerebral cortex was minced, it was digested in papain solution (9 U/ml) containing DNase I (30 U/ml) at 37 degrees Celsius for 15 minutes, dispersing the cells. After further carrying out mechanical dispersing by pipetting, it was passed through a cell strainer with a pore size of 70 μm, and a cell suspension was obtained. This cell suspension was plated at a density of 1.3×10^5 cells/cm^2 on the astrocyte layer, and a co-culture was carried out using D-MEM/F-12 medium (Invitrogen) containing 10% heat-inactivated fetal calf serum and 5% horse serum (Invitrogen). 2 days after the start of the co-culture, cells were treated for 24 hours with 10 μM cytosine arabinoside in order to suppress the excessive cell proliferation of microglia and the like. 8 to 9 days after the start of the co-culture, cells were used for the test. Additionally, using one portion of the cells, immunofluorescent staining and nuclear staining was carried out with astrocyte recognizing antibodies (anti-GFAP) and neuron recognizing antibodies (anti-MAP2), in order to confirm that the present culture system is a co-culture system of astrocytes and neurons.
(§3) An astrocyte/neuron co-culture cultured on a 96 well plate was used in the test. A predetermined concentration of the test substance and hydrogen peroxide (250 μM) was simultaneously added to the cell culture in each well with continuing cultivation, and analysis was done 24 hours after this treatment. Using an LDH Cytotoxicity Detection Kit (Takara Bio), analysis was carried out in accordance with the included instruction manual, and the damage to the entire co-culture system by the hydrogen peroxide treatment and the protective effect (EC 50 value) of the test substance was evaluated. Further, the cell bodies and the neuronal processes of the neurons were observed by microscope, and the neuroprotective effect was evaluated.

[2] = test system: astrocyte/neuron co-culture; test: Brain cell damage induced by hydrogen peroxide treatment (LDH assay); type: cell-based; details: Rattus norvegicus, hydrogen peroxide (250 μM), 24 hours, read-out: 50% inhibition concentration against cell damage in entire co-culture system (EC50 value)
Protocol: as §1, §2, §3

SMILES | EC100 [1] [µM] | EC50 [2] [nM] | melting point [°C]
COc1ccc(CCc2nc(N3CCOCC3)c(N)c(N3CCN(S(=O)(=O)N(C)C)CC3)n2)cc1 [Compound 214, 5-amino-4-(4-dimethylsulfamoylpiperazin-1-yl)-2-[2-(4-methoxyphenyl)ethyl]-6-morpholinopyrimidine] | 10 | 2260 | –
Fc1c(N2CCOCC2)nc(N2CCN(C3CCCCC3)CC2)nc1N1CCOCC1 [Compound 123, 2-(4-cyclohexylpiperazin-1-yl)-5-fluoro-4,6-dimorpholinopyrimidine] | 10 | 2980 | –
Cc1ccccc1N1CCN(c2nc(N3CCOCC3)cc(N3CCN(c4ccccc4)CC3)n2)CC1 [Compound 61, 2-[4-(2-methylphenyl)piperazin-1-yl]-6-morpholino-4-(4-phenylpiperazin-1-yl)pyrimidine] | 10 | 6450 | –
Cc1ccccc1N1CCN(c2nc(N3CCOCC3)c(F)c(N3CCN(c4ccccc4)CC3)n2)CC1 [Compound 128, 5-fluoro-2-[4-(2-methylphenyl)piperazin-1-yl]-6-morpholino-4-(4-phenylpiperazin-1-yl)pyrimidine] | 3 | 300 | –
COc1ccc(/C=C/c2nc(NCC(N)=O)c(N)c(N3CCOCC3)n2)cc1 [Compound 206, 5-amino-4-carbamoylmethylamino-2-[2-(4-methoxyphenyl)vinyl]-6-morpholinopyrimidine] | 10 | 4850 | –
c1ccc(N2CCN(c3nc(N4CCNCC4)cc(N4CCOCC4)n3)CC2)cc1 [Compound 52, 4-morpholino-2-(4-phenylpiperazin-1-yl)-6-(piperazin-1-yl)pyrimidine] | 30 | 3160 | –
Fc1ccccc1N1CCN(c2nc(N3CCOCC3)c(F)c(N3CCN(c4ccccc4F)CC3)n2)CC1 [Compound 126, 2,4-bis[4-(2-fluorophenyl)piperazin-1-yl]-5-fluoro-6-morpholinopyrimidine] | – | 800 | 131 to 132
Cc1cccc(N2CCN(c3nc(N4CCN(Cc5ccncc5)CC4)nc(N4CCOCC4)c3F)CC2)c1C [Compound 191, 5-fluoro-4-morpholino-2-[4-(4-pyridinylmethyl)piperazin-1-yl]-6-[4-(2,3-xylyl)piperazin-1-yl]-pyrimidine] | – | 730 | 127 to 128
Cc1cccc(N2CCN(c3nc(N4CCN(Cc5ccc(N(C)C)cc5)CC4)nc(N4CCOCC4)c3F)CC2)c1C [Compound 192, 5-fluoro-2-[4-(4-dimethylaminobenzyl)piperazin-1-yl]-4-morpholino-6-[4-(2,3-xylyl)piperazin-1-yl]pyrimidine] | 1 | 300 | –
Cc1cccc(N2CCN(c3nc(N4CCOCC4)c(F)c(N4CCN(C(=O)OC(C)(C)C)CC4)n3)CC2)c1C [Compound 179, 4-(4-tert-butoxycarbonylpiperazin-1-yl)-5-fluoro-6-morpholino-2-[4-(2,3-xylyl)piperazin-1-yl]pyrimidine] | 3 | 340 | –
CC(=O)Nc1c(N2CCOCC2)nc(N2CCOCC2)nc1N1CCC(Cc2ccccc2)CC1 [Compound 78, 5-acetylamino-4-(4-benzylpiperidin-1-yl)-2,6-dimorpholinopyrimidine] | 30 | 9750 | –
CN(C)c1cc(N2CCOCC2)nc(N2CCN(c3ccccc3)CC2)n1 [Compound 2, 4-dimethylamino-6-morpholino-2-(4-phenylpiperazin-1-yl)pyrimidine] | – | 18400 | 149
Cc1ccc(N2CCN(c3nc(N4CCOCC4)nc(N4CCN(C)CC4)c3F)CC2)cc1 [Compound 155, 5-fluoro-4-[4-(4-methylphenyl)piperazin-1-yl]-6-(4-methylpiperazin-1-yl)-2-morpholinopyrimidine] | 3 | 320 | –
Cc1ccc(N2CCN(c3nc(NCCN4CCNCC4)nc(N4CCOCC4)c3F)CC2)cc1 [Compound 158, 5-fluoro-4-[4-(4-methylphenyl)piperazin-1-yl]-6-morpholino-2-[2-(piperazin-1-yl)-ethylamino]pyrimidine] | 1 | 160 | –
Cc1ccc(N2CCN(c3nc(N4CCOCC4)c(F)c(N4CCN(C(=O)OC(C)(C)C)CC4)n3)CC2)cc1 [Compound 153, 4-[4-(tert-butoxycarbonyl)piperazin-1-yl]-5-fluoro-2-[4-(4-methylphenyl)piperazin-1-yl]-6-morpholinopyrimidine] | 3 | 450 | –
Fc1ccccc1N1CCN(c2nc(N3CCN(c4ccccc4)CC3)nc(N3CCOCC3)c2F)CC1 [Compound 125, 5-fluoro-4-[4-(2-fluorophenyl)piperazin-1-yl]-6-morpholino-2-(4-phenylpiperazin-1-yl)pyrimidine] | – | 560 | 140 to 141
CCOC(=O)C1CSCCN1c1nc(/C=C/c2ccc(OC)cc2)nc(N2CCOCC2)c1N (stereo not shown) [Compound 209, 5-amino-4-(3-ethoxycarbonylthiomorpholin-4-yl)-2-[2-(4-methoxyphenyl)vinyl]-6-morpholinopyrimidine] | 10 | 1480 | –
CC(C)(C)OC(=O)N1CCN(c2nc(N3CCCc4ccccc43)nc(N3CCOCC3)c2F)CC1 [Compound 168, 4-[4-(tert-butoxycarbonyl)piperazin-1-yl]-5-fluoro-6-morpholino-2-(1,2,3,4-tetrahydro-1H-quinolin-1-yl)pyrimidine] | 3 | 310 | –
COc1ccc(/C=C/c2nc(N(C)C)c(N)c(N3CCNCC3)n2)cc1 [Compound 210, 5-amino-4-dimethylamino-2-[2-(4-methoxyphenyl)vinyl]-6-(1-piperazinyl)pyrimidine] | 10 | 4070 | –
COc1ccc(/C=C/c2nc(NCCN3CCOCC3)c(N)c(N3CCOCC3)n2)cc1 [Compound 207, 5-amino-2-[2-(4-methoxyphenyl)vinyl]-4-morpholino-6-(2-morpholinoethylamino)pyrimidine] | 10 | 5800 | –
Cc1ccc(N2CCN(c3nc(N4CCOCC4)nc(NCCN4CCOCC4)c3F)CC2)cc1 [Compound 160, 5-fluoro-4-[4-(4-methylphenyl)piperazin-1-yl]-2-morpholino-6-(2-morpholinoethylamino)pyrimidine] | 3 | 1080 | –
CCCNc1cc(N2CCOCC2)nc(N2CCN(c3ccccc3)CC2)n1 [Compound 56, 4-morpholino-2-(4-phenylpiperazin-1-yl)-6-propylaminopyrimidine] | 10 | 2950 | –
COc1ccc(/C=C/c2nc(N3CCOCC3)c(N)c(N3CCN(S(=O)(=O)N(C)C)CC3)n2)cc1 [Compound 215, 5-amino-4-(4-dimethylsulfamoylpiperazin-1-yl)-2-[2-(4-methoxyphenyl)vinyl]-6-morpholinopyrimidine] | 10 | 1610 | –
Cc1cccc(N2CCN(c3nc(N4CCNCC4)nc(N4CCOCC4)c3F)CC2)c1C [Compound 178, 5-fluoro-4-morpholino-2-(1-piperazinyl)-6-[4-(2,3-xylyl)piperazin-1-yl]pyrimidine] | 3 | 480 | –
N#CC1(c2ccccc2)CCN(c2nc(N3CCOCC3)nc(N3CCOCC3)c2F)CC1 [Compound 115, 4-(4-cyano-4-phenylpiperidin-1-yl)-5-fluoro-2,6-dimorpholinopyrimidine] | – | 630 | –
CCOc1ccccc1N1CCN(c2nc(N3CCOCC3)c(F)c(N3CCN(C)CC3)n2)CC1 [Compound 190, 2-[4-(2-ethoxyphenyl)piperazin-1-yl]-5-fluoro-4-(4-methylpiperazin-1-yl)-6-morpholinopyrimidine] | 3 | 340 | –
CC1CCc2cc(F)ccc2N1c1nc(N2CCOCC2)c(N)c(N2CCOCC2)n1 (stereo not shown) [Compound 71, 5-amino-2-(6-fluoro-2-methyl-1,2,3,4-tetrahydroquinolin-1-yl)-4,6-dimorpholinopyrimidine] | – | 1960 | –

From patent publication US8563715B2, “Pyrimidine derivative having cell protecting effect and uses thereof” (Zenyaku Kogyo Kabushikikaisha, priority 2008, dated 2013)
